In publication PMC7571068, “Antiproliferative and Pro-Apoptotic Effect of Uvaol in Human Hepatocarcinoma HepG2 Cells by Affecting G0/G1 Cell Cycle Arrest, ROS Production and AKT/PI3K Signaling Pathway” (Molecules, 2020):
Values after ≈ are worked out from the molar mass of the structure shown.

Tests used:
HepG2 cells [1] = test system: HepG2 cells; parameters: method as in PMID 26370984; conditions: HepG2, 72 h; cited from earlier work
HepG2 line = test system: HepG2 line; parameters: method as in PMID 26151733; conditions: HepG2, 22.11 μg/mL, same phase = G0/G1; cited from earlier work
HepG2 cells [2] = assay: Muse Annexin V & Dead Cell apoptosis assay; type: cell-based, human; conditions: HepG2, staurosporine 1 μg/mL (positive control)
Protocol: (§1) A total of 1.5 × 10^5 cells were seeded per well in 24-well plates for each cell line (quadruplicates for three different populations of each cell line). […] Negative control populations were incubated only with the appropriate culture medium. The samples were analyzed in the Muse^TM Cell Analyzer (Merck-Millipore®, Burlington, MA, USA). Phosphatidylserine (PS) is a phospholipid that is usually found in the inner half of the cytoplasmic membrane, but is outsourced when loss of integrity occurs in the apoptosis process. The method is based on the recognition and binding to the PS exposed by annexin V protein, labeled with a fluorescent substance to detect the interaction and quantify it. We used the Muse^TM Annexin V & Dead Cell kit purchased from Millipore (Billerica, MA, USA), which provides the percentage of viable cells, apoptotic and affected by necrosis.

WRL68 cells = assay: Muse Annexin V & Dead Cell apoptosis assay; type: cell-based, human; conditions: WRL68, staurosporine 1 μg/mL (positive control)
Protocol: as §1

CC1(C)CC[C@]2(C(=O)O)CC[C@]3(C)C(=CC[C@@H]4[C@@]5(C)C[C@@H](O)[C@H](O)C(C)(C)[C@@H]5CC[C@]43C)[C@@H]2C1 [maslinic acid]
IC50 (HepG2 cells [1]): 47 µg/mL (≈ 99.4 µM)

CC1(C)CC[C@]2(C(=O)O)CC[C@]3(C)C(=CC[C@@H]4[C@@]5(C)CC[C@H](O)C(C)(C)[C@@H]5CC[C@]43C)[C@@H]2C1 [oleanolic acid]
cell cycle arrest (HepG2 line): arrest in the same phase of the cycle

CN[C@@H]1C[C@H]2O[C@@](C)([C@@H]1OC)n1c3ccccc3c3c4c(c5c6ccccc6n2c5c31)C(=O)NC4 [staurosporine, reference compound]
change in apoptotic cells vs control (HepG2 cells [2]): did not lead to an increase in apoptotic cells
change in number of apoptotic and necrotic cells vs control (WRL68 cells): equally significant increase
change in number of viable cells vs control (WRL68 cells): significant decrease
